Where “and” joins values, the source holds several entries; their conditions need not be identical. Equal entries are not always repeated. Where two headings read alike, the source gives them in different places.
Assays:
CHO-K1 = assay: MTT cell viability assay, CHO-K1; format: cell-based, Chinese Hamster; settings: Cricetulus griseus; CHO-K1 normal cells, MTT, 72 h, mean ± SD
Protocol: (§1) Twelve compounds (2a-e, 3a-d and 4a-c) at a concentration range of 50–5000 μM were tested for their antiproliferative potential against four human cancer cell lines (A375—melanotic melanoma, C32—amelanotic melanoma, DU145—prostate cancer androgen-independent, MCF-7/WT—breast adenocarcinoma) and two normal cell lines: Chinese Hamster Ovary (CHO-K1) and immortalized human keratinocytes from histologically normal skin (HaCaT).
(§2) To determine the antiproliferative activity of newly synthesized compounds, the following cell lines were used: human melanotic melanoma cell line (A375), human amelanotic melanoma cell line (C32), human breast adenocarcinoma cell line (MCF-7/WT), human prostate cancer androgen-independent (DU145) and two normal cell lines: hamster ovarian (CHO-K1) and immortalized human keratinocytes from histologically normal skin (HaCaT). The cells were obtained from the cell line bank of the Department of Molecular and Cellular Biology, Wroclaw Medical University. A375, C32, MCF-7/WT, DU145 and HaCaT cells were grown in a monolayer cultured in Dulbecco’s Modified Eagle’s Medium (DMEM, Sigma-Aldrich, Poznań, Poland), supplemented with 10% of fetal bovine serum (FBS, Gibco, Paisley, UK) and 1% of antibiotics (penicillin/streptomycin, Sigma-Aldrich) and CHO-K1 were grown in HAM’s F-12 medium (Sigma-Aldrich), supplemented with 10% fetal bovine serum (FBS, Gibco) and 1% of antibiotics (penicillin/streptomycin, Sigma-Aldrich). Cell lines were cultured in the polystyrene flasks 25 or 75 cm^2 (Thermo Fisher Scientific, Waltham, MA, USA), which were stored in 37 °C and 5% CO2 in a humidified 95% atmosphere (SteriCult, Thermo Scientific, Alab). The cell medium was exchanged twice a week. The exponentially growing cells were used throughout the experiments. The cells were rinsed with phosphate-buffered saline (PBS, Sigma-Aldrich) and trypsinized by Trypsin-EDTA 0.25% solution (Sigma-Aldrich).
(§3) The influence of the compounds was performed in a monolayer culture on cancer and normal cells. Compounds were initially dissolved in DMSO; further dilutions of the compound were performed in Dulbecco’s Modified Eagle’s Medium supplemented with 10% FBS. Compounds were tested in a 50–5000 µM concentration range. In the in vitro experiments, the concentrations of DMSO in the final solution of the compounds were used 0.05%; 0.1%; 0.5%; 1%, respectively.
(§4) Cell viability was determined using the MTT colorimetric assay. All cell lines were seeded into 96-well plates to a density of 3 × 10^4 cells/well. After 24 h, the culture supernatants were removed and appropriate dilutions of compounds in the culture medium (200 µL/well) were added to the cells’ monolayer cultures and incubated for an additional 72 h. After 72 h of exposition to the compounds and the removal of the culture medium, cell viability was determined by reducing the yellow dye 3-(4,5-dimethyl-2-thiazol)-2,5-diphenyl-2H-tetrazolium bromide (MTT assay, Sigma Saint Louis, MO, USA; In Vitro Toxicology Assay) to a blue formazan product. The absorbance of the resulting solutions in three duplicate experiments was measured at the wavelength of 560 nm in a microplate reader (EnSpire, Perkin Elmer, Kraków, Poland). MTT assay is a colorimetric method that estimates the rate of metabolism in viable cells. Absorbance is directly proportional to the number of viable cells. All the experiments were performed three times and the mean absorbance values were calculated. The methodology for the evaluation of the growth of human cancer and normal cells was described previously. The cell viability in each group was expressed as a percentage of control (untreated) cells.

[1] = system: 60 human cancer cell lines; assay: NCI-60 anticancer screen, full panel; format: cell-based
HS 578T = assay: NCI-60 screen, Breast Cancer HS 578T; format: cell-based, human
K-562 = assay: NCI-60 screen, Leukemia K-562; format: cell-based, human
SF-539 = assay: NCI-60 screen, CNS Cancer SF-539; format: cell-based, human
A375 = assay: MTT cell viability assay, A375; format: cell-based, human; settings: Homo sapiens
Protocol: as §1, §2, §3, §4

NCI-H226 = assay: NCI-60 screen, Non-Small Cell Lung Cancer NCI-H226; format: cell-based, human
DU-145 = assay: NCI-60 screen, Prostate C. DU-145; format: cell-based
HT29 = assay: NCI-60 screen, Colon Cancer HT29; format: cell-based, human
HCC-2998 = assay: NCI-60 screen, Colon Cancer HCC-2998; format: cell-based, human; settings: HCC-2998, 10^−5 M one dose
[2] = over the panel, values > −4.00 excluded

SMILES: FC(F)(F)c1nc(Cl)c2sc(=S)n(-c3ccccc3)c2n1 [Compound 3b, 7-chloro-3-phenyl-5-(trifluoromethyl)[1, 3]thiazolo[4,5-d]pyrimidine-2(3H)-thione]
- IC50 (CHO-K1): 75.5 ± 1.6 µM
- Mean Growth % ([1]; 10^−5 M one dose, mean over the panel): 29.51%
- GI50 ([1]; Homo sapiens, five doses 10^−4–10^−8 M, mean graph midpoint over all tested cell lines, read-out: log GI50 Mean MG_MID (converted)): 2.19 µM
- CC50 ([1]; Homo sapiens, five doses 10^−4–10^−8 M, mean graph midpoint over all tested cell lines, read-out: log LC50 Mean MG_MID (converted)): 16.6 µM
- CC50 ([1]; Homo sapiens, one number printed for the pair, read-out: log LC50 MG_MID/Δ (converted)): 16.6 µM
- log TGI Mean MG_MID ([1]; five doses 10^−4–10^−8 M, mean graph midpoint over all tested cell lines): −5.30 log M and −5.3 log M
- N2: number of cell lines giving positive log TGI (≤−4.01) ([1]; of N = 58 tested cell lines): 58
- log GI50 Range [1, 2]: −4.86 to −6.69 log M
- log LC50 Range [1, 2]: −4.03 to −5.82 log M
- log TGI Range [1, 2]: −4.31 to −6.33 log M
- Growth of Cells (%) (HS 578T; 10^−5 M one dose): 21.84%
- GI50 (HS 578T; Homo sapiens, five doses 10^−4–10^−8 M): 2.82 µM
- CC50 (HS 578T; Homo sapiens, five doses 10^−4–10^−8 M, read-out: log LC50 (the source's name) (converted)): > 100 µM
- log TGI (HS 578T; five doses 10^−4–10^−8 M): −5.07 log M
- GI50 (K-562; Homo sapiens, K562, K-562, five doses 10^−4–10^−8 M): 0.692 µM
- CC50 (K-562; Homo sapiens, K562, K-562, five doses 10^−4–10^−8 M, read-out: log LC50 (the source's name) (converted)): > 100 µM
- Growth of Cells (%) (K-562; K-562, 10^−5 M one dose): 33.07%
- log TGI (K-562; K-562, five doses 10^−4–10^−8 M): −5.36 log M
- GI50 (SF-539; Homo sapiens, SF-539, five doses 10^−4–10^−8 M): 1.66 µM
- CC50 (SF-539; Homo sapiens, SF-539, five doses 10^−4–10^−8 M, read-out: log LC50 (the source's name) (converted)): 5.89 µM
- Growth of Cells (%) (SF-539; SF-539, 10^−5 M one dose): 75.80%
- log TGI (SF-539; SF-539, five doses 10^−4–10^−8 M): −5.50 log M
- IC50 (A375; A-375, 72 h, A375, MTT, mean ± SD): 25.4 ± 0.5 µM
- viability at 50 µM (A375; A-375, A375 melanotic melanoma, 50 µM, 72 h): 20%
- GI50 (NCI-H226; Homo sapiens, NCI-H226, five doses 10^−4–10^−8 M): 13.8 µM
- CC50 (NCI-H226; Homo sapiens, NCI-H226, five doses 10^−4–10^−8 M, read-out: log LC50 (the source's name) (converted)): > 100 µM
- Growth of Cells (%) (NCI-H226; NCI-H226, 10^−5 M one dose): 89.12%
- log TGI (NCI-H226; NCI-H226, five doses 10^−4–10^−8 M): −4.31 log M
- Growth of Cells (%) (DU-145; DU-145, 10^−5 M one dose): 9.04%
- log TGI (DU-145; DU-145, five doses 10^−4–10^−8 M): −5.46 log M
- GI50 (DU-145; Homo sapiens, DU-145, read-out: log GI50 (converted)): 1.86 µM
- CC50 (DU-145; Homo sapiens, DU-145, five doses 10^−4–10^−8 M, read-out: log LC50 (the source's name) (converted)): 6.46 µM
- Growth of Cells (%) (HT29; HT29, 10^−5 M one dose): −71.75%
- log TGI (HT29; HT29, five doses 10^−4–10^−8 M): −5.40 log M
- GI50 (HT29; Homo sapiens, HT-29, HT29, five doses 10^−4–10^−8 M): 1.91 µM
- Growth of Cells (%) (HCC-2998): −26.98% and −26.89%

Source: publication PMC8778818, “Synthesis, Structural Characterization and Anticancer Activity of New 5-Trifluoromethyl-2-thioxo-thiazolo[4,5-d]pyrimidine Derivatives” (Pharmaceuticals, 2022)
